The source of these data is patent US11339136B2 (Novartis AG, priority 2016, dated 2022).

A value given as a limit tells only on which side of the number the result lay.

The target of one assay is T1, hNLRP3 (Homo sapiens, UniProt Q96P20).
T1 construct: THP-1 cells were purchased from the American Type Culture Collection; host or cells: THP-1 cells, PMA-differentiated
T1 sequence (Q96P20 whole entry): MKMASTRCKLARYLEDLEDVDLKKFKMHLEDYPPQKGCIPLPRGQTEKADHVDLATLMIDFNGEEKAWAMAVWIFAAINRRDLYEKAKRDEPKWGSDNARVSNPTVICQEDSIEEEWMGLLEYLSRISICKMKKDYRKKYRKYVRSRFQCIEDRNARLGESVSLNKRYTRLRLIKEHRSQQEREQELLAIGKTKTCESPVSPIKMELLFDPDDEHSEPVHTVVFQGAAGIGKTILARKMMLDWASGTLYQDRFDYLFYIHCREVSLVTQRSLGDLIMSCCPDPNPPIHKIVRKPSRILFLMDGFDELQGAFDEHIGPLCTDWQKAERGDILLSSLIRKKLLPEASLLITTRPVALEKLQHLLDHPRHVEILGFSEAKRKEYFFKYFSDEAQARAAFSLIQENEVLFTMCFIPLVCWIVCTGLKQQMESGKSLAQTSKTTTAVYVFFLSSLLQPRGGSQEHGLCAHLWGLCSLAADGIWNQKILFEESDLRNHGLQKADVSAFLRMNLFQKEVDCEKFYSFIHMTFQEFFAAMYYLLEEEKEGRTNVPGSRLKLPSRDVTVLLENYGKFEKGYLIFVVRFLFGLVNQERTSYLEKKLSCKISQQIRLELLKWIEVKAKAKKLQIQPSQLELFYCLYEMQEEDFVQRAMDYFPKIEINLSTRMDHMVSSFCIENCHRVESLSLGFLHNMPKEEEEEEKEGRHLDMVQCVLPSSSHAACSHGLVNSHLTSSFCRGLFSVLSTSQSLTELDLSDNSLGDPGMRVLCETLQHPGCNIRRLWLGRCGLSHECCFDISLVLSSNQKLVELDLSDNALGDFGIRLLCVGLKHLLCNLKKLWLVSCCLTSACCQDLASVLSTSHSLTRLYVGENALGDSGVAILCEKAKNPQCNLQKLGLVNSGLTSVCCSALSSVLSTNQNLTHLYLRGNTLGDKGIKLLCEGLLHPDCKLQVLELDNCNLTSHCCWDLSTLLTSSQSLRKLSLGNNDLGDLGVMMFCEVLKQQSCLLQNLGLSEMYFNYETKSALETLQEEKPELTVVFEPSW
The experiment in a line: IL-1β production in PMA-differentiated THP-1 cells stimulated with gramicidin. The assay is classed as cell-based. Particulars: gramicidin 5 μM, IL-1β in supernatant, Table 1. The procedure: Bioassay: IL-1β Production in PMA-Differentiated THP-1 Cells Stimulated with Gramicidin. Procedure 1:
Cell culture—THP-1 cells were purchased from the American Type Culture Collection and sub-cultured according to instructions from the supplier. Prior to experiments, cells were cultured in RPMI 1640 containing 10% heat inactivated FBS, penicillin (100 units/ml) and streptomycin (100 μg/ml), and maintained in log phase prior to experimental setup. Prior to the experiment THP-1 were treated with PMA (Phorbol 12-myristate 13-acetate) (10 μg/ml) for 24 hours. The day of the experiment the media was removed and attaching cells were treated with trypsin for 2 minutes, cells were then collected, washed with PBS (phosphate buffer saline), spin down, resuspended in 2% heat inactivated FBS with RPMI at a concentration of 1×10^6 cells/ml, and 100 ul was plated in a 96 well plate. Cells were incubated with compounds for 1 hours and then stimulated with Gramicidin (5 μM) (Enzo) for 2 hours. Cell free supernatant was collected and the production of IL-1β was evaluated by ELISA. Compounds were dissolved in dimethyl sulfoxide (DMSO) and added to the culture medium to achieve desired concentration (e.g. 100, 30, 10, 3, 1, 0.3 or 0.1 μM). A vehicle only control was run concurrently with each experiment. Final DMSO concentration was 1%.
THP-1 cells were purchased from the American Type Culture Collection and sub-cultured according to instructions from the supplier. Prior to experiments, cells were cultured in complete RPMI 1640 (containing 10% heat inactivated FBS, penicillin (100 units/ml) and streptomycin (100 μg/ml)), and maintained in log phase prior to experimental setup. Prior to the experiment THP-1 were treated with PMA (Phorbol 12-myristate 13-acetate) (20 ng/ml) for 16-18 hours. On the day of the experiment the media was removed and adherent cells were detached with trypsin for 5 minutes. Cells were then harvested, washed with complete RPMI 1640, spun down, resuspended in RPMI 1640 (containing 2% heat inactivated FBS, penicillin (100 units/ml) and streptomycin (100 μg/ml). The cells were plated in a 384-well plate at a density of 50,000 cells/well (final assay volume 50 μl). Compounds were dissolved in dimethyl sulfoxide (DMSO) and added to the culture medium to achieve desired concentration (e.g. 100, 33, 11, 3.7, 1.2, 0.41, 0.14, 0.046, 0.015, 0.0051, 0.0017 μM). Cells were incubated with compounds for 1 hour and then stimulated with gramicidin (5 μM) (Enzo) for 2 hours. Cell free supernatant was collected and the production of IL-1β was evaluated by HTRF (cisbio). A vehicle only control was run concurrently with each experiment. Final DMSO concentration was 0.38%.
As for `CC(C)(O)c1coc(S(=O)(=O)NC(=O)Nc2c3c(c(C#N)c4c2CCC4)CCC3)c1` [Compound 105, N-(8-cyano-1,2,3,5,6,7-hexahydros-indacen-4-ylcarbamoyl)-4-(2-hydroxypropan-2-yl)furan-2-sulfonamide], the IC50 was < 1000 nM.

The same assay, now with this note: gramicidin 5 μM, IL-1β in supernatant, Table 2.
Take `CC(C)c1cc(F)cc(C(C)C)c1NC(=O)NS(=O)(=O)c1cc(C(C)(C)O)c(Cl)s1` [Compound 253, 5-chloro-N-(4-fluoro-2,6-diisopropylphenyl-carbamoyl)-4-(2-hydroxypropan-2-yl)thiophene-2-sulfonamide]: the IC50 is < 1000 nM. `N#Cc1c2c(c(NC(=O)NS(=O)(=O)c3ccc(C4(O)CC4)s3)c3c1CCC3)CCC2` [Compound 178, N-(8-cyano-1,2,3,5,6,7-hexahydros-indacen-4-ylcarbamoyl)-5-(1-hydroxycyclopropyl) thiophene-2-sulfonamide] came in with an IC50 of 1000 to 5000 nM. Still for that read-out and setting: then `O=C(Nc1c2c(c(F)c3c1CCC3)CCC2)NS(=O)(=O)c1cc(C2(O)CC2)co1` [Compound 207, N-(8-fluoro-1,2,3,5,6,7-hexahydros-indacen-4-ylcarbamoyl)-4-(1-hydroxycyclo-propyl)furan-2-sulfonamide], with < 1000 nM. Same read-out and setting: then `CC(C)c1ccc(F)c(C(C)C)c1NC(=O)NS(=O)(=O)c1ncc(C(C)(C)O)s1` [Compound 213, N-(3-fluoro-2,6-diisopropylphenyl-carbamoyl)-5-(2-hydroxypropan-2-yl)thiazole-2-sulfonamide], with < 1000 nM; and `CCc1ccc2c(c1NC(=O)NS(=O)(=O)c1cc(C(C)(C)O)cs1)CCC2` [Compound 166, N-(5-ethyl-2,3-dihydro-1H-inden-4-ylcarbamoyl)-4-(2-hydroxypropan-2-yl)thiophene-2-sulfonamide], with 1000 to 5000 nM; and `O=C(Nc1c2c(c(Cl)c3c1CCC3)CCC2)NS(=O)(=O)c1ccc(C2(O)CC2)s1` [Compound 199, N-(8-chloro-1,2,3,5,6,7-hexahydros-indacen-4-ylcarbamoyl)-5-(1-hydroxycyclopropyl) thiophene-2-sulfonamide], with 1000 to 5000 nM. `CC(C)c1ccc(F)c(C(C)C)c1NC(=O)NS(=O)(=O)c1cc(C(C)(C)O)cs1` [Compound 228, N-(3-fluoro-2,6-diisopropylphenyl-carbamoyl)-4-(2-hydroxypropan-2-yl)thiophene-2-sulfonamide]: the IC50 is < 1000 nM. On to `CC(C)(O)c1ccc(S(=O)(=O)NC(=O)Nc2c3c(c(Cl)c4c2CCC4)CCC3)s1` [Compound 189, N-(8-chloro-1,2,3,5,6,7-hexahydros-indacen-4-ylcarbamoyl)-5-(2-hydroxypropan-2-yl) thiophene-2-sulfonamide], for which the IC50 is < 1000 nM. `CC(C)c1cc(C#N)cc(C(C)C)c1NC(=O)NS(=O)(=O)c1cc(C(C)(C)O)cs1` [Compound 217, N-(4-cyano-2,6-diisopropylphenyl-carbamoyl)-4-(2-hydroxypropan-2-yl)thiophene-2-sulfonamide]: the IC50 is < 1000 nM. In turn, `CCc1cccc(CC)c1NC(=O)NS(=O)(=O)c1cc(C(C)(C)O)cs1` [Compound 173, N-(2,6-diethylphenylcarbamoyl)-4-(2-hydroxypropan-2-yl)thiophene-2-sulfonamide] displayed an IC50 of 15000 to 35000 nM. On the same count and under the same terms, then `CCc1cc(F)cc(CC)c1NC(=O)NS(=O)(=O)c1cc(C(C)(C)O)cs1` [Compound 161, N-(2,6-diethyl-4-fluorophenylcarbamoyl)-4-(2-hydroxypropan-2-yl)thiophene-2-sulfonamide], with 1000 to 5000 nM; and `O=C(Nc1c2c(cc3c1CCC3)CCC2)NS(=O)(=O)c1ncc(C2(O)CCC2)s1` [Compound 197, N-(1,2,3,5,6,7-hexahydros-indacen-4-ylcarbamoyl)-5-(1-hydroxycyclo-butyl)thiazole-2-sulfonamide], with < 1000 nM. Consider `O=C(Nc1c2c(cc3c1CCC3)CCC2)NS(=O)(=O)c1cc(C2(O)CC2)cs1` [Compound 216], for which the IC50 is < 1000 nM. As to `CC(C)c1ccc(F)c(C(C)C)c1NC(=O)NS(=O)(=O)c1ncc(C2(O)CCCC2)s1` [Compound 168, N-(3-fluoro-2,6-diisopropylphenylcarbamoyl)-5-(1-hydroxycyclopentyl) thiazole-2-sulfonamide], the IC50 lay in the range of 5000 to 15000 nM.

`CC(C)(O)c1csc(S(=O)(=O)NC(=O)Nc2c3c(c(Cl)c4c2CCC4)CCC3)c1` [Compound 232, N-(8-chloro-1,2,3,5,6,7-hexahydros-indacen-4-ylcarbamoyl)-4-(2-hydroxypropan-2-yl)thiophene-2-sulfonamide]: the IC50 is < 1000 nM. As for `Cc1sc(S(=O)(=O)NC(=O)Nc2c(C(C)C)ccc(F)c2C(C)C)cc1C(C)(C)O` [Compound 154, N-(3-fluoro-2,6-diisopropylphenylcarbamoyl)-4-(2-hydroxypropan-2-yl)-5-methylthiophene-2-sulfonamide], the IC50 lay within 1000 to 5000 nM.

Regarding `CC(C)c1ccc(F)c(C(C)C)c1NC(=O)NS(=O)(=O)c1ccc(C(C)(C)O)s1` [Compound 185, N-(3-fluoro-2,6-diisopropylphenylcarbamoyl)-5-(2-hydroxypropan-2-yl)thiophene-2-sulfonamide], the IC50 lay in the range of 1000 to 5000 nM. As for `O=C(Nc1c2c(cc3c1CCC3)CCC2)NS(=O)(=O)c1ncc(C2(O)CCCCC2)s1` [Compound 193, N-(1,2,3,5,6,7-hexahydros-indacen-4-ylcarbamoyl)-5-(1-hydroxycyclohexyl) thiazole-2-sulfonamide], the IC50 is 1000 to 5000 nM. Molecule `CC(C)c1cncc(C(C)C)c1NC(=O)NS(=O)(=O)c1ncc(C(C)(C)O)s1` [Compound 138] registered an IC50 of 1000 to 5000 nM.

`Cc1nc(S(=O)(=O)NC(=O)Nc2c(C(C)C)cc(Cl)cc2C(C)C)sc1C(C)(C)O` [Compound 151, N-(4-chloro-2,6-diisopropylphenylcarbamoyl)-5-(2-hydroxypropan-2-yl)-4-methylthiazole-2-sulfonamide]: the concentration for half-maximal inhibition (IC50) was in the range of 1000 to 5000 nM.

For the molecule `N#Cc1c2c(c(NC(=O)NS(=O)(=O)c3cc(C4(O)CC4)co3)c3c1CCC3)CCC2` [Compound 206, N-(8-cyano-1,2,3,5,6,7-hexahydros-indacen-4-ylcarbamoyl)-4-(1-hydroxycyclopropyl) furan-2-sulfonamide], the IC50 was < 1000 nM.

Turning to `Cc1sc(S(=O)(=O)NC(=O)Nc2c(C(C)C)cc(F)cc2C(C)C)cc1C(C)(C)O` [Compound 157, N-(4-fluoro-2,6-diisopropylphenyl-carbamoyl)-4-(2-hydroxypropan-2-yl)-5-methylthiophene-2-sulfonamide], the half-inhibitory concentration (IC50) is < 1000 nM. For `O=C(Nc1c2c(c(Cl)c3c1CCC3)CCC2)NS(=O)(=O)c1cc(C2(O)CC2)cs1` [Compound 210, N-(8-chloro-1,2,3,5,6,7-hexahydros-indacen-4-ylcarbamoyl)-4-(1-hydroxycyclo-propyl)thiophene-2-sulfonamide], the half-inhibitory concentration (IC50) was < 1000 nM. The same measure, in the same setting: then `CC(C)c1cc(F)cc(C(C)C)c1NC(=O)NS(=O)(=O)c1ccc(C2(O)CC2)s1` [Compound 198, N-(4-fluoro-2,6-diisopropylphenylcarbamoyl)-5-(1-hydroxycyclopropyl) thiophene-2-sulfonamide], with < 1000 nM; and `CC(C)c1cc(Cl)cc(C(C)C)c1NC(=O)NS(=O)(=O)c1ncc(C(C)(C)O)s1` [Compound 219, N-(4-chloro-2,6-diisopropylphenyl-carbamoyl)-5-(2-hydroxypropan-2-yl)thiazole-2-sulfonamide], with < 1000 nM.

As a reminder, the IC50 is the concentration at which inhibition is half-maximal. Higher therefore signals weaker potency.
